# Article PMC9588003, “TRPM8 contributes to sex dimorphism by promoting recovery of normal sensitivity in a mouse model of chronic migraine” (Nature Communications, 2022)
# pEC50: −log10 of the molar value.
# Target: human TRPM8 (hTRPM8) (Homo sapiens, UniProt Q7Z2W7)
# Test: whole-cell patch clamp, hTRPM8-HEK293 cells; agonist dose-response
# Assay type: cell-based
# human TRPM8 (hTRPM8), sequence (Q7Z2W7 whole entry): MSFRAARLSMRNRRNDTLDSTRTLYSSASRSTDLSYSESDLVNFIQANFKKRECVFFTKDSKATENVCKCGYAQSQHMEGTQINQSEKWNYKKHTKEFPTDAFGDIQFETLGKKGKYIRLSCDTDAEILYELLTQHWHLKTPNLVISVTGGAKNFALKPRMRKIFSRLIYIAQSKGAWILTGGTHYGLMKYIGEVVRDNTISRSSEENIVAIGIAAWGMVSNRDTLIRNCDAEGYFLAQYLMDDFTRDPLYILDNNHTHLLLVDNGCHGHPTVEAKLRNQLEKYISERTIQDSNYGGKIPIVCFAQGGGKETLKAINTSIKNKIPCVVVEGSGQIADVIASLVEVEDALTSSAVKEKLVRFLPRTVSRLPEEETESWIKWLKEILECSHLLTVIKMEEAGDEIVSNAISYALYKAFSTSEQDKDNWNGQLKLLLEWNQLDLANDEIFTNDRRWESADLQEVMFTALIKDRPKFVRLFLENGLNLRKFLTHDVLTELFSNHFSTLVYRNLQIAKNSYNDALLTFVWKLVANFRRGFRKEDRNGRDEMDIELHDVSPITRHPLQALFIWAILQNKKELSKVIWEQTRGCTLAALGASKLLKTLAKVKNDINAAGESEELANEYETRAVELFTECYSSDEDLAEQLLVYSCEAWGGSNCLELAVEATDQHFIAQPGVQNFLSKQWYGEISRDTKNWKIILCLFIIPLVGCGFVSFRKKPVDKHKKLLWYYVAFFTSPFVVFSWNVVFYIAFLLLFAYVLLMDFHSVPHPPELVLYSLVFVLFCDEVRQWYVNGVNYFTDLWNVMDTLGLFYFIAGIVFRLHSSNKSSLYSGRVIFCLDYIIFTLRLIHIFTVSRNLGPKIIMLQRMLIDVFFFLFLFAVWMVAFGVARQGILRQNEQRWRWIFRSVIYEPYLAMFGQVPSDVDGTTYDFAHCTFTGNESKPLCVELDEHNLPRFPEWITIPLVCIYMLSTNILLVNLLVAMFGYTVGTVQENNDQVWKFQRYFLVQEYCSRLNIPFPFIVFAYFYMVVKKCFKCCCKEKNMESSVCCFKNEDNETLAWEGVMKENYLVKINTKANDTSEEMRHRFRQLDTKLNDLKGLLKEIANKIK
smiles,measurement,value
"COc1ccc(NC(=O)[C@@H]2C[C@H](C)CC[C@H]2C(C)C)cc1 [WS12, (1R,2S,5R)−2-Isopropyl-N-(4-methoxyphenyl)−5-methylcyclohexanecarboxamide]",pEC50,6.30
